Legend:
Format in all cases: in vivo
[1] = tested on: Lolium multiflorum; assay: Greenhouse pre-emergence (PRE) herbicidal test on LOLMU; conditions: 20 DAT; for % activity solo application: PRE, LOLMU
In short: (§1)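 Pre-emergence greenhouse assay: sown loamy-sand pots (humus approx. 3.0%) were kept under transparent hoods until rooting, then grown at species-appropriate 10-25° C or 20-35° C. Response ratings of 0 (no damage) to 100 (no plants emerged) were recorded 20 days after application.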

[2] = tested on: Ipomoea hederacea; assay: Greenhouse post-emergence (POST) herbicidal test on IPOHE; conditions: 20 DAT; for % activity solo application: POST, IPOHE
In short: (§2)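 Weeds grown in loamy sand (~3.0% humus) to 3–15 cm were sprayed post-emergence with compounds suspended or emulsified in water, formulated as 5% emulsion concentrates. Plants were kept at 10-25 °C or 20-35 °C by species. Damage was scored 0–100 (100 = complete destruction) at 20 DAT.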

[3] = tested on: Ambrosia artemisiifolia; assay: Greenhouse pre-emergence (PRE) herbicidal test on AMBEL; conditions: for % activity / % activity solo application: PRE; for % activity: 10 DAT; for % activity solo application: AMBEL
[4] = tested on: Echinochloa crus-galli; assay: Greenhouse post-emergence (POST) herbicidal test on ECHCG; conditions: Echinochloa crus-galli, post-emergence, 480 h, ECHCG POST, 20 DAT, use rate 25 gai/ha
In short: as §2

[5] = tested on: Amaranthus retroflexus; assay: Greenhouse pre-emergence (PRE) herbicidal test on AMARE; conditions: 20 DAT; for % activity solo application: PRE, AMARE
In short: as §1

[6] = tested on: Euphorbia heterophylla; assay: Greenhouse pre-emergence (PRE) herbicidal test on EPHHL; conditions: 20 DAT; for inhibition at 25 g/ha: use rate 25 gai/ha
In short: as §1

[7] = tested on: Abutilon theophrasti; assay: Greenhouse pre-emergence (PRE) herbicidal test on ABUTH; conditions: for % activity solo application: ABUTH
In short: as §1

[8] = tested on: Setaria viridis; assay: Greenhouse pre-emergence (PRE) herbicidal test on SETVI; conditions: 20 DAT; for % activity solo application: PRE, SETVI
In short: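 Herbicidal effect is scored from 0 (no damage) to 100 (no emergence or above-ground parts destroyed), 20 days after treatment. Application is pre-emergent onto sown pots, with components given as a 5% by weight emulsion concentrate in the spray liquor.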

[9] = tested on: Euphorbia heterophylla; assay: Greenhouse post-emergence (POST) herbicidal test on EPHHL; conditions: 20 DAT; for % activity solo application: POST, EPHHL
In short: as §2

[10] = tested on: Amaranthus retroflexus; assay: Greenhouse post-emergence (POST) herbicidal test on AMARE; conditions: 20 DAT; for inhibition at 25 g/ha: use rate 25 gai/ha
In short: as §2

[11] = tested on: Geranium pusillum; assay: Greenhouse post-emergence (POST) herbicidal test on GERPU; conditions: Geranium pusillum, post-emergence, 480 h, 20 DAT
In short: as §2

[12] = tested on: Commelina benghalensis; assay: Greenhouse pre-emergence (PRE) herbicidal test on COMBE; conditions: 20 DAT
In short: as §1

[13] = tested on: Abutilon theophrasti; assay: Greenhouse post-emergence (POST) herbicidal test on ABUTH; conditions: 20 DAT
In short: as §2

[14] = tested on: AMAPA; assay: Greenhouse pre-emergence (PRE) herbicidal test on AMAPA
[15] = tested on: Echinochloa crus-galli; assay: Greenhouse pre-emergence (PRE) herbicidal test on ECHCG; conditions: PRE; for % activity: 10 DAT; for % activity solo application: ECHCG, 20 DAT
[16] = tested on: Alopecurus myosuroides; assay: Greenhouse pre-emergence (PRE) herbicidal test on ALOMY; conditions: PRE, ALOMY, 20 DAT
In short: as §1

[17] = tested on: Geranium pusillum; assay: Greenhouse pre-emergence (PRE) herbicidal test on GERPU; conditions: PRE, 20 DAT; for % activity: GERPU
Description: (§3) The culture containers used were plastic pots containing loamy sand with approximately 3.0% of humus as substrate. The seeds of the test plants were sown separately for each species.
(§4) For the pre-emergence treatment, the active compounds, suspended or emulsified in water, were applied directly after sowing by means of finely distributing nozzles. The containers were irrigated gently to promote germination and growth and subsequently covered with transparent plastic hoods until the plants had rooted. This cover caused uniform germination of the test plants unless this was adversely affected by the active compounds.
(§5) Depending on the species, the plants were kept at 10-25° C. and 20-35° C., respectively.
(§6) The test period extended over 2 to 4 weeks. During this time, the plants were tended and their response to the individual treatments was evaluated.
(§7) Evaluation was carried out using a scale from 0 to 100. 100 means no emergence of the plants, or complete destruction of at least the above-ground parts, and 0 means no damage or normal course of growth. A good herbicidal activity is given at values of at least 70, and very good herbicidal activity is given at values of at least 85.
(§8) If not stated differently, the respective components A and B, and if appropriate, C were formulated as a 5% by weight strength emulsion concentrate and, with addition of the amount of solvent system, introduced into the spray liquor used for applying the active compound.
(§9) As indicated application was either post emergent (POST) at the respective growth stage (GS) of the weed (BBCH code), or pre-emergent (PRE).
(§10) Assessment was 20 days after treatment (DAT).

[18] = tested on: Digitaria sanguinalis; assay: Greenhouse post-emergence (POST) herbicidal test on DIGSA; conditions: POST, DIGSA, 20 DAT
In short: as §2

[19] = tested on: Ipomoea hederacea; assay: Greenhouse pre-emergence (PRE) herbicidal test on IPOHE; conditions: Ipomoea hederacea, pre-emergence, 480 h, PRE, IPOHE, 20 DAT
Description: as §3, §4, §5, §6, §7, §8, §9, §10

CC(C)N(C(=O)COc1nnc(C(F)(F)F)s1)c1ccc(F)cc1 [Flufenacet, flufenacet]
inhibition at 12.5 g/ha ([1]; Lolium multiflorum, pre-emergence, 480 h, LOLMU PRE, use rate 12.5 gai/ha): 0%
inhibition at 25 g/ha ([1]; Lolium multiflorum, pre-emergence, 480 h, LOLMU PRE, use rate 25 gai/ha): 35%
inhibition at 12.5 g/ha ([2]; Ipomoea hederacea, post-emergence, 480 h, IPOHE POST, use rate 12.5 gai/ha): 0%
inhibition at 25 g/ha ([2]; Ipomoea hederacea, post-emergence, 480 h, IPOHE POST, use rate 25 gai/ha): 0%
inhibition at 12.5 g/ha ([3]; Ambrosia artemisiifolia, pre-emergence, 480 h, AMBEL PRE, 20 DAT, use rate 12.5 gai/ha): 0%
inhibition at 25 g/ha [4]: 85%
inhibition at 12.5 g/ha ([5]; Amaranthus retroflexus, pre-emergence, 480 h, AMARE PRE, use rate 12.5 gai/ha): 0%
inhibition at 12.5 g/ha ([6]; Euphorbia heterophylla, pre-emergence, 480 h, EPHHL PRE, use rate 12.5 gai/ha): 10%
inhibition at 25 g/ha ([6]; Euphorbia heterophylla, pre-emergence, 480 h, EPHHL PRE): 10%
inhibition at 12.5 g/ha ([7]; Abutilon theophrasti, pre-emergence, 480 h, ABUTH PRE, 20 DAT, use rate 12.5 gai/ha): 0%
inhibition at 25 g/ha ([8]; Setaria viridis, pre-emergence, 480 h, SETVI PRE, use rate 25 gai/ha): 65%
inhibition at 12.5 g/ha ([9]; Euphorbia heterophylla, post-emergence, 480 h, EPHHL POST, use rate 12.5 gai/ha): 0%
inhibition at 12.5 g/ha ([10]; Amaranthus retroflexus, post-emergence, 480 h, AMARE POST, use rate 12.5 gai/ha): 15%
inhibition at 25 g/ha ([10]; Amaranthus retroflexus, post-emergence, 480 h, AMARE POST): 25%
inhibition at 12.5 g/ha ([11]; GERPU POST, use rate 12.5 gai/ha): 5%
inhibition at 12.5 g/ha ([12]; Commelina benghalensis, pre-emergence, 480 h, COMBE PRE, use rate 12.5 gai/ha): 10%
inhibition at 25 g/ha ([12]; Commelina benghalensis, pre-emergence, 480 h, COMBE PRE, use rate 25 gai/ha): 35%
inhibition at 25 g/ha ([13]; Abutilon theophrasti, post-emergence, 480 h, ABUTH POST, use rate 25 gai/ha): 0%

O=C(O)c1c(Cl)ccc2cc(Cl)cnc12 [Quinclorac, quinclorac]
inhibition at 62.5 g/ha ([14]; pre-emergence, 480 h, use rate 62.5 gai/ha, 20 DAT): 60%
inhibition at 125 g/ha ([14]; pre-emergence, 480 h, use rate 125 gai/ha, 20 DAT): 65%
inhibition at 250 g/ha ([14]; pre-emergence, 480 h, use rate 250 gai/ha, 20 DAT): 65%
inhibition at 500 g/ha ([14]; pre-emergence, 480 h, use rate 500 gai/ha, 20 DAT): 70%
inhibition at 125 g/ha ([10]; Amaranthus retroflexus, post-emergence, 480 h, POST, use rate 125 gai/ha): 50%
inhibition at 500 g/ha ([12]; Commelina benghalensis, pre-emergence, 480 h, PRE, use rate 500 gai/ha): 65%

icafolin
% activity ([14]; use rate 25 gai/ha, 10 DAT): 10%
% activity ([3]; use rate 25 gai/ha): 10%
% activity ([3]; use rate 50 gai/ha): 15%
% activity ([15]; use rate 12.5 gai/ha): 25%
% activity ([15]; use rate 50 gai/ha): 30%
% activity ([7]; PRE, use rate 12.5 gai/ha, 10 DAT): 20%

O=C(Nc1ccc(F)cc1)c1cccc(Oc2cccc(C(F)(F)F)c2)n1 [Picolinafen, picolinafen]
% activity ([16]; use rate 50 gai/ha): 25%
% activity ([17]; use rate 50 gai/ha): 15%
% activity ([17]; use rate 100 gai/ha): 40%

COc1cc(OC)nc(Oc2cccc(Oc3nc(OC)cc(OC)n3)c2C(=O)O)n1 [Bispyribac-Sodium, bispyribac-sodium]
inhibition at […] ([7]; Abutilon theophrasti, pre-emergence, 480 h, PRE, use rate 7.5 gai/ha, 20 DAT, read-out: % activity): 5%
inhibition at 15 g/ha ([7]; Abutilon theophrasti, pre-emergence, 480 h, PRE, use rate 15 gai/ha, 20 DAT, read-out: % activity): 45%
inhibition at […] ([17]; Geranium pusillum, pre-emergence, 480 h, use rate 7.5 gai/ha): 75%
inhibition at 15 g/ha ([12]; Commelina benghalensis, pre-emergence, 480 h, PRE, use rate 15 gai/ha): 80%

CCc1cccc(C)c1N(C(=O)CCl)[C@@H](C)COC [S-Metolachlor, S-metolachlor]
% activity solo application ([1]; 25 gai/ha): 0%
% activity solo application ([1]; 50 gai/ha): 0%
% activity solo application ([2]; 25 gai/ha): 0%
% activity solo application ([2]; 50 gai/ha): 0%
% activity solo application ([3]; 25 gai/ha, 20 DAT): 0%
% activity solo application ([3]; 50 gai/ha, 20 DAT): 0%
% activity solo application ([15]; 25 gai/ha): 20%
% activity solo application ([15]; 50 gai/ha): 50%
% activity solo application ([5]; 25 gai/ha): 20%
% activity solo application ([5]; 50 gai/ha): 20%
% activity solo application ([16]; 25 gai/ha): 0%
% activity solo application ([16]; 50 gai/ha): 0%
% activity solo application ([6]; PRE, EPHHL, 25 gai/ha): 0%
% activity solo application ([6]; PRE, EPHHL, 50 gai/ha): 0%
% activity solo application ([7]; PRE, 25 gai/ha, 20 DAT): 0%
% activity solo application ([7]; PRE, 50 gai/ha, 20 DAT): 0%
% activity solo application ([8]; 25 gai/ha): 10%
% activity solo application ([8]; 50 gai/ha): 75%
% activity solo application ([9]; 25 gai/ha): 0%
% activity solo application ([9]; 50 gai/ha): 5%
% activity solo application ([10]; POST, AMARE, 25 gai/ha): 5%
% activity solo application ([10]; POST, AMARE, 50 gai/ha): 60%
% activity solo application ([18]; 25 gai/ha): 0%
% activity solo application ([18]; 50 gai/ha): 10%
% activity solo application ([12]; PRE, COMBE, 25 gai/ha): 10%
% activity solo application ([13]; POST, ABUTH, 25 gai/ha): 0%
% activity solo application ([13]; POST, ABUTH, 50 gai/ha): 0%

Cc1ccccc1CO[C@@H]1C[C@@]2(C(C)C)CC[C@]1(C)O2 (racemic) [Cinmethylin, cinmethylin]
inhibition at 25 g/ha ([6]; Euphorbia heterophylla, pre-emergence, 480 h, PRE, EPHHL): 0%
inhibition at 50 g/ha ([6]; Euphorbia heterophylla, pre-emergence, 480 h, PRE, EPHHL, use rate 50 gai/ha): 0%
inhibition at 25 g/ha ([10]; Amaranthus retroflexus, post-emergence, 480 h, POST, AMARE): 0%
inhibition at 100 g/ha ([10]; Amaranthus retroflexus, post-emergence, 480 h, POST, AMARE, use rate 100 gai/ha, read-out: % activity): 30%
inhibition at 25 g/ha ([11]; POST, GERPU, use rate 25 gai/ha): 10%
inhibition at 50 g/ha ([13]; Abutilon theophrasti, post-emergence, 480 h, POST, ABUTH, use rate 50 gai/ha): 0%
inhibition at 100 g/ha ([13]; Abutilon theophrasti, post-emergence, 480 h, POST, ABUTH, use rate 100 gai/ha): 0%
inhibition at 25 g/ha ([19]; use rate 25 gai/ha): 0%
inhibition at 50 g/ha ([19]; use rate 50 gai/ha): 0%
